Molecules are shown by their SMILES.

The values that follow come from publication PMC6562117, “The role of the tyrosine kinase Wzc (Sll0923) and the phosphatase Wzb (Slr0328) in the production of extracellular polymeric substances (EPS) by Synechocystis PCC 6803” (MicrobiologyOpen, 2019).

One assay deals with T1, Wzb (Slr0328); His6-Wzb (Synechocystis sp. PCC 6803, UniProt Q55535).
T1 construct: one monomer in the asymmetric unit
Put plainly: continuous p-nitrophenol release at […] nm. The class given is biochemical. As to conditions: 10 mM pNPP, 100 mM sodium citrate pH 6.5, 1 mM EDTA, 0.1% beta-mercaptoethanol, 30 C.

For another assay, the target named is T2, Wzc (Sll0923); His6-Wzc (Synechocystis sp. PCC 6803, UniProt P72877).
T2 construct: gene epsB
In words: ATP consumption by luciferase bioluminescence (ENLITEN). The class given is biochemical. As to conditions: 25 mM Tris-HCl pH 7.0, 1 mM DTT, 5 mM MgCl2, 30 C, 45 min; heat-inactivated Wzc as control.

T1 sequence (Q55535 whole entry): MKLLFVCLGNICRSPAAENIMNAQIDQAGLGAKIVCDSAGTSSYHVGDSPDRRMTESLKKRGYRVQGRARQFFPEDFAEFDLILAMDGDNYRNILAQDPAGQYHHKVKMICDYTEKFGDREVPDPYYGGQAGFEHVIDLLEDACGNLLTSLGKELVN
T2 sequence (P72877 entry or part of it): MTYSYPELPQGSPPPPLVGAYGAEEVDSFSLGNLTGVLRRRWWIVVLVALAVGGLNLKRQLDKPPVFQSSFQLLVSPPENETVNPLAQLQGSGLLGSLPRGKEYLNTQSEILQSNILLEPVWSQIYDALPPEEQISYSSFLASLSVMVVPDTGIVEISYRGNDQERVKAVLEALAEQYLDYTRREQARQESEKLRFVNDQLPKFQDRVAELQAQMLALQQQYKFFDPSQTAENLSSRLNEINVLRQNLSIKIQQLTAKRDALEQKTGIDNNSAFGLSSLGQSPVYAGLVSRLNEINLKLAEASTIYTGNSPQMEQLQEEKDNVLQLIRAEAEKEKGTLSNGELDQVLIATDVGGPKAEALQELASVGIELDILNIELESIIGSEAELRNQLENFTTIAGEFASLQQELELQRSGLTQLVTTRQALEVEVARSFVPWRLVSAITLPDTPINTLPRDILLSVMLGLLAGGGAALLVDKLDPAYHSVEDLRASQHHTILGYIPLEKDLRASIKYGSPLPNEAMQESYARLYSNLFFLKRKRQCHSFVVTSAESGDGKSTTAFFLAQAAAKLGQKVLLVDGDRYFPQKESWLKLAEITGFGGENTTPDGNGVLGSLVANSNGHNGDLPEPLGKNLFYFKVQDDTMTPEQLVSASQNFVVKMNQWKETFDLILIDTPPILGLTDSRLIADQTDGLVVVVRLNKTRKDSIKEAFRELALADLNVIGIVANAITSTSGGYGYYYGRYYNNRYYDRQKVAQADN

Take `O=[N+]([O-])c1ccc(OP(=O)(O)O)cc1` [p-nitrophenyl phosphate]: at Wzb (Slr0328); His6-Wzb, the “continuous p-nitrophenol release at 405 nm” value was “we first used a p‐nitrophenyl phosphate hydrolysis assay to confirm that Wzb functions as a phosphatase”. In the case of `Nc1ncnc2c1ncn2[C@@H]1O[C@H](COP(=O)(O)OP(=O)(O)OP(=O)(O)O)[C@@H](O)[C@H]1O` [ATP], the “ATP consumption by luciferase bioluminescence (ENLITEN)” value at Wzc (Sll0923); His6-Wzc is “Wzc is capable of ATP binding and hydrolysis”.
